Tests used:
Assay type in all cases: cell-based
[1] = tested on: ACE2 high expressing-HEK293T cells (ACE2h cells); details: 24 h, even at 100 μM
Description: For cytotoxicity assay, ACE2^h cells were seeded into 96-well plates at a density of 1×10^4 cells per well and then treated with different concentrations of OA (0.01, 0.1, 1, 10, 100 μM) for 24 h, then 10 μL of Cell Counting Kit (IV08-500, Invigentech, USA) solution was added to each well followed by 2 h of incubation. The relative cell viability was assessed by the detection of the absorbance at 450 nm using a microplate reader (Infinite F50, Thermo Fisher, China). The survival rate of ACE2^h cells was calculated as the following formula: Survival rate = [(OD Treated –OD Blank) / (OD Control−OD Blank)] × 100%.

[2] = tested on: SARS-CoV-2 Delta (B.1.617.2) pseudovirus into ACE2h cells; assay: microbe, parasite or virus in culture
[3] = tested on: SARS-CoV-2 pseudovirus Omicron (B.1.1529) into ACE2h cells

With O=C(O)C(=O)O [OA, Oxalic acid] the “cytotoxic effect (cell viability)” value [1] was “no significant cytotoxic effect”, the “expression of green fluorescent protein in ACE2h cells” value [2] was “significantly reduced” and the IC50 ([2]; Pseudovirus, read-out: IC50, inhibition of entry of Delta pseudovirus into ACE2h cells) was 26 µM. For the same molecule, the “luciferase activity compared to the control” value [3] was “significantly reduced”.
